Measurements as given in the supplement of paper PMC10307832.

How the values were obtained:
Assay in all cases: relative viability (nuclei count vs DMSO), 5 days (fraction); higher = more cells survive
Elesclomol + Palbociclib = compound: CN(NC(=O)CC(=O)NN(C)C(=S)c1ccccc1)C(=S)c1ccccc1 [Elesclomol] + CC(=O)c1c(C)c2cnc(Nc3ccc(N4CCNCC4)cn3)nc2n(C2CCCC2)c1=O [Palbociclib] (partner 0.5 µM)
How it was run: (§1)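 Relative viability equals treated-well nuclei counts divided by vehicle-well nuclei counts. Counts came from 4× images of lung cancer cell lines grown in 1536-well plates for 5 days after pin-tool dosing on the day after seeding. Dosing used one drug alone or a fixed anchor-drug dose plus five library-drug doses (not always all listed) in √10 steps, and values are medians of duplicate plates.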

Elesclomol + Bortezomib = compound: CN(NC(=O)CC(=O)NN(C)C(=S)c1ccccc1)C(=S)c1ccccc1 [Elesclomol] + CC(C)C[C@H](NC(=O)[C@H](Cc1ccccc1)NC(=O)c1cnccn1)B(O)O [Bortezomib] (partner 0.002 µM)
How it was run: as §1

Elesclomol + Foretinib = compound: CN(NC(=O)CC(=O)NN(C)C(=S)c1ccccc1)C(=S)c1ccccc1 [Elesclomol] + COc1cc2c(Oc3ccc(NC(=O)C4(C(=O)Nc5ccc(F)cc5)CC4)cc3F)ccnc2cc1OCCCN1CCOCC1 [Foretinib] (partner 0.25 µM)
How it was run: as §1

Elesclomol + Pemetrexed = compound: CN(NC(=O)CC(=O)NN(C)C(=S)c1ccccc1)C(=S)c1ccccc1 [Elesclomol] + Nc1nc2[nH]cc(CCc3ccc(C(=O)N[C@@H](CCC(=O)O)C(=O)O)cc3)c2c(=O)[nH]1 [Pemetrexed] (partner 0.2 µM)
How it was run: as §1

Elesclomol + Decitabine = compound: CN(NC(=O)CC(=O)NN(C)C(=S)c1ccccc1)C(=S)c1ccccc1 [Elesclomol] + Nc1ncn([C@H]2C[C@H](O)[C@@H](CO)O2)c(=O)n1 [Decitabine] (partner 2 µM)
How it was run: as §1

| Cell Line | relative viability (Elesclomol + Palbociclib; first compound 0.003162 µM) | relative viability (Elesclomol + Palbociclib; first compound 0.01 µM) | relative viability (Elesclomol + Palbociclib; first compound 0.03162 µM) | relative viability (Elesclomol + Palbociclib; first compound 0.1 µM) | relative viability (Elesclomol + Bortezomib; first compound 0.003162 µM) | relative viability (Elesclomol + Bortezomib; first compound 0.01 µM) | relative viability (Elesclomol + Bortezomib; first compound 0.03162 µM) | relative viability (Elesclomol + Bortezomib; first compound 0.1 µM) | relative viability (Elesclomol + Foretinib; first compound 0.003162 µM) | relative viability (Elesclomol + Foretinib; first compound 0.01 µM) | relative viability (Elesclomol + Foretinib; first compound 0.03162 µM) | relative viability (Elesclomol + Foretinib; first compound 0.1 µM) | relative viability (Elesclomol + Pemetrexed; first compound 0.003162 µM) | relative viability (Elesclomol + Pemetrexed; first compound 0.01 µM) | relative viability (Elesclomol + Pemetrexed; first compound 0.03162 µM) | relative viability (Elesclomol + Pemetrexed; first compound 0.1 µM) | relative viability (Elesclomol + Decitabine; first compound 0.003162 µM) | relative viability (Elesclomol + Decitabine; first compound 0.01 µM) | relative viability (Elesclomol + Decitabine; first compound 0.03162 µM) | relative viability (Elesclomol + Decitabine; first compound 0.1 µM) |
| --- | --- | --- | --- | --- | --- | --- | --- | --- | --- | --- | --- | --- | --- | --- | --- | --- | --- | --- | --- | --- |
| HCC-366 | 0.393 | 0.393 | 0.0812 | 0.0176 | 1.09 | 1.04 | 0.688 | 0.0134 | 0.893 | 0.945 | 0.899 | 0.0283 | 0.167 | 0.156 | 0.116 | 0.0342 | 0.39 | 0.31 | 0.0994 | 0.0263 |
| HCC-827 | 0.471 | 0.436 | 0.428 | 0.626 | 1.03 | 0.998 | 0.947 | 0.999 | 0.991 | 0.913 | 1.12 | 0.683 | 0.275 | 0.272 | 0.258 | 0.246 | 0.344 | 0.35 | 0.283 | 0.252 |
| HOP-62 | 0.461 | 0.333 | 0.305 | 0.144 | 0.884 | 0.708 | 0.83 | 0.146 | 1.12 | 0.948 | 0.677 | 0.349 | 0.369 | 0.333 | 0.224 | 0.113 | 0.189 | 0.231 | 0.214 | 0.137 |
| IA-LM | – | – | – | – | 0.534 | 0.137 | 0.0664 | 0.0121 | 1.13 | 0.54 | 0.0372 | 0.009 | – | – | – | – | – | – | – | – |
| LC-2-ad | 0.482 | 0.409 | 0.223 | 0.193 | 0.978 | 0.337 | 0.11 | 0.0678 | 0.697 | 0.411 | 0.267 | 0.286 | 0.294 | 0.269 | 0.236 | 0.201 | 0.763 | 0.653 | 0.391 | 0.218 |
| LK-2 | – | 0.717 | 0.695 | 0.0756 | – | – | – | – | 0.89 | 0.969 | 0.719 | 0.177 | – | 0.289 | 0.276 | 0.128 | 0.288 | 0.314 | 0.276 | 0.113 |
| NCI-H358 | 0.132 | 0.105 | 0.0798 | 0.0844 | – | – | – | – | 0.261 | 0.182 | 0.106 | 0.1 | 0.159 | 0.123 | 0.142 | 0.133 | 0.171 | 0.108 | 0.0885 | 0.0726 |
| NCI-H522 | 1.16 | 0.819 | 0.894 | 0.632 | – | – | – | – | – | – | – | – | 1.08 | 1.09 | 1.18 | 0.641 | 0.693 | 0.649 | 0.7 | 0.469 |
| NCI-H596 | – | – | – | – | 1 | 1.04 | 0.95 | 0.156 | 0.918 | 1.03 | 0.764 | 0.158 | 0.523 | 0.452 | 0.489 | 0.211 | 1.03 | 0.903 | 0.664 | 0.241 |
| NCI-H727 | 0.633 | 0.494 | 0.676 | 0.497 | 0.679 | 0.405 | 0.185 | 0.0498 | 0.745 | 0.611 | 0.526 | 0.317 | – | – | – | – | 0.98 | 0.836 | 0.847 | 0.528 |
| NCI-H1395 | 0.659 | 0.36 | 0.309 | 0.219 | – | – | – | – | 1.06 | 0.665 | 0.332 | 0.324 | 0.829 | 0.436 | 0.201 | 0.183 | 0.754 | 0.532 | 0.318 | 0.249 |
| NCI-H1563 | – | – | – | – | 0.732 | 0.62 | 0.457 | 0.492 | 0.727 | 0.724 | 0.617 | 0.459 | 0.741 | 0.698 | 0.544 | 0.619 | – | – | – | – |
| NCI-H1703 | – | – | – | – | 0.136 | 0.0882 | 0.104 | 0.12 | 0.26 | 0.207 | 0.129 | 0.133 | – | – | – | – | – | – | – | – |
| NCI-H1792 | 0.544 | 0.569 | 0.607 | 0.662 | 0.894 | 0.85 | 0.968 | 0.986 | – | – | – | – | 0.79 | – | 0.793 | 0.277 | 0.53 | – | 0.523 | 0.443 |
| NCI-H1793 | 0.3 | 0.297 | 0.247 | 0.123 | – | – | – | – | 0.613 | 0.618 | 0.658 | 0.193 | 0.833 | 0.643 | 0.855 | 0.102 | 0.44 | 0.387 | 0.454 | 0.126 |
| NCI-H1944 | 0.328 | 0.328 | 0.347 | 0.227 | – | – | – | – | 0.93 | 0.868 | 0.838 | 0.358 | 0.613 | 0.724 | 0.572 | 0.189 | 0.441 | 0.498 | 0.401 | 0.253 |
| NCI-H2170 | 0.396 | 0.358 | 0.358 | 0.29 | – | – | – | – | 1.02 | 1.03 | 0.977 | 0.764 | 0.28 | 0.28 | 0.27 | 0.26 | 0.461 | 0.48 | 0.48 | 0.38 |
| NCI-H2228 | 0.676 | 0.513 | 0.225 | 0.0449 | 0.926 | 0.893 | 0.422 | 0.0364 | 0.863 | 0.844 | 0.252 | 0.054 | 0.307 | 0.308 | 0.143 | 0.0377 | – | – | – | – |
| SK-MES-1 | 0.325 | 0.291 | 0.221 | 0.184 | – | – | – | – | 0.87 | 0.502 | 0.859 | 0.854 | 0.982 | 0.597 | 0.524 | 0.415 | 0.425 | 0.306 | 0.213 | 0.172 |
| SW 900 | 0.531 | 0.453 | 0.168 | 0.0979 | – | – | – | – | 0.87 | 0.91 | 0.127 | 0.0681 | 0.495 | 0.453 | 0.289 | 0.0977 | 0.404 | 0.358 | 0.204 | 0.13 |
